Data taken from patent US7763580B2, “Methods for treating conditions associated with the accumulation of excess extracellular matrix” (University of Utah Research Foundation, priority 1999, dated 2010).

Key:
[1] = tested on: anti-Thy 1 glomerulonephritis; assay: Immunofluorescent staining of glomerular fibronectin EDA+ and collagen I; type: in vivo, Sprague Dawley rats; details: enalapril alone
Method: These experiments were performed on male Sprague Dawley rats (200-250 g) obtained from the Sasco colony of Charles River Laboratories (Wilmington, Mass., USA). Animal housing and care were in accordance with the NIH Guide for the Care and Use of Laboratory Animals, NIH Publication No. 85-23, 1985. Animals were fed a normal protein diet (22% protein, Teklad No. 86 550, Teklad Premier Laboratory Diets, Madison, Wis., USA). Glomerulonephritis was induced by tail vein injection of 2.25 mg/Kg of the monoclonal anti-Thy 1.1 antibody OX-7 (NCCC, Biovest International Inc, Minneapolis, Minn., USA). OX-7 binds to a Thy 1-like epitope on the surface of mesangial cells causing complement-dependent cell lysis followed by fibrotic tissue repair (Bagchus et al., Lab Invest. 55:680-687 (1986)). Control animals were injected with similar volumes of phosphate-buffered saline (PBS). […] The intensity of glomerular staining of collagen I and fibronectin was evaluated according to a 0 to 4 scale, which has been described in detail previously (Yamamoto et al., Kidney Int. 49:461-469 (1996)). The number of cells per glomerulus, staining positive for the monocyte/macrophage marker ED1, were counted. Thirty glomeruli per sample were evaluated. The mean values with standard error values were calculated. […] The percent reduction in disease severity in a treated group was calculated as: […]

[2] = tested on: Normal fetal human mesangial cells; assay: Renin-induced TGFβ production by fetal human mesangial cells (ELISA); type: cell-based; details: 10^−5 M inhibitor added at zero time with 10^−7 M human recombinant renin, FIG. 3
Method: Normal fetal human mesangial cells (Clonetics Corp., Clonetics, Walkersville, Md.) passaged 5 to 8 times, were plated (3,000 cell/cm^2) in 12 well plates in 2 ml of medium (Mesangial Basal Medium (Clonetics Corp.) containing 5% FCS, 10 μg/ml penicillin and 100 μg/ml streptomycin) and allowed to grow to confluence for 48 hours at 37EC, 5% CO2. Cultures were washed three times using sterile phosphate buffered saline at room temperature and then 2 ml/well of serum free MBM medium to induce quiescence. After 48 hours, the serum-free medium was removed and 2 ml/well of fresh serum-free medium was added. Human recombinant renin (Hoffman-La Roche Ltd., Basel, Switzerland) in concentrations from 10^−6 to 10^−12 M was added to each well. A blank and 5 ng/ml of TGFβ (R & D Systems, Minneapolis, Minn.) were used as controls. Cells and supernatants were harvested by centrifugation after 24 hrs of culture and frozen at ^−70EC until analysis. The total production and release of TGFβ into the culture supernatant was measured using an ELISA kit (R & D Systems). Induction of PAI-1 and fibronectin in the supernatant are also measured using anti-PAI-1 and anti-fibronectin antibodies in an ELISA to provide further confirmation of the inhibition of TGFβ. TGFβ, fibronectin and PAI-1 mRNA are measured using semi-quantitative RT-PCR.
Renin inhibitor Ro42-5892 (Hoffman-LaRoche, Basel, Switzerland), Losartan™ (Merck Pharmaceuticals, West Point, Pa.), Enalapril™ (Sigma Chemical Co., St. Louis, Mo., Prod. No. E6888), or TGFβ1 neutralizing antibody (R & D Systems) were added in the amounts indicated below to separate wells in triplicate to block the renin cascade at different sites after stimulation by renin: • 10^−5 M Renin Inhibitor R042-5892 (Hoffman-LaRoche) • 30 ng/ml Anti-TGFβ1 antibody (R & D Systems, #AB 101 NA) • 30 ng/ml Chicken IgG (control for anti-TGFβ1 antibody, R & D Systems, # AB 101 C) • 10^−5 M Enalapril™ (Sigma Chemical Co., St. Louis, Mo.) • 10^−5 M Losartan™ (Merck Pharmaceuticals, West Point, Pa.)
These inhibitors were added at zero time with 10^−7 M human recombinant renin (Hoffman-LaRoche).

CCOC(=O)[C@H](CCc1ccccc1)N[C@@H](C)C(=O)N1CCC[C@H]1C(=O)O [enalapril]
reduction of collagen I immunostaining [1]: 33% | reduction of fibronectin immunostaining [1]: 36% | renin-induced increase in TGFβ production [2]: does not reduce the renin-induced increase in TGFβ production
